# “And” between values parts separate entries of the source, which are not always exact repeats. Equal entries are not always repeated. Toxic doses and inconclusive results are not listed.
# Tested on: L1210 leukemia ip in BDF1 mice, survival T/C
# Test: NCI In Vivo Anticancer Drug Screen. Data for tumor model L1210 Leukemia (intraperitoneal) in B6D2F1 (BDF1) mice
# Details: endpoint: mean survival time, higher = longer survival
# Method in brief: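 Read-out is survival time, reported as the treated-group measurement over the vehicle-control measurement.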
# [1] = dose: 50.0 mg/kg/injection, schedule: Q01DX009 (ip), vehicle: saline with Tween-80
# [2] = dose: 100.0 mg/kg/injection, schedule: Q04DX003 (ip), vehicle: saline with Tween-80
# [3] = dose: 200.0 mg/kg/injection, schedule: Q04DX003 (ip), vehicle: saline with Tween-80
# [4] = dose: 100.0 mg/kg/injection, schedule: Q04DX003 (ip), vehicle: saline
# [5] = dose: 200.0 mg/kg/injection, schedule: Q04DX003 (ip), vehicle: saline
# [6] = dose: 100.0 mg/kg/injection, schedule: Q01DX009 (ip), vehicle: Klucel (hydroxypropylcellulose) (HPC)
# [7] = dose: 200.0 mg/kg/injection, schedule: Q01DX009 (ip), vehicle: Klucel (hydroxypropylcellulose) (HPC)
# [8] = dose: 400.0 mg/kg/injection, schedule: Q01DX009 (ip), vehicle: Klucel (hydroxypropylcellulose) (HPC)
# [9] = dose: 100.0 mg/kg/injection, schedule: Q01DX001 (ip), vehicle: saline
# [10] = dose: 200.0 mg/kg/injection, schedule: Q01DX001 (ip), vehicle: saline
# [11] = dose: 400.0 mg/kg/injection, schedule: Q01DX001 (ip), vehicle: saline
# [12] = dose: 100.0 mg/kg/injection, schedule: Q04DX002 (ip), vehicle: Klucel (hydroxypropylcellulose) (HPC)
# [13] = dose: 200.0 mg/kg/injection, schedule: Q04DX002 (ip), vehicle: Klucel (hydroxypropylcellulose) (HPC)
# [14] = dose: 400.0 mg/kg/injection, schedule: Q04DX002 (ip), vehicle: Klucel (hydroxypropylcellulose) (HPC)
# [15] = dose: 100.0 mg/kg/injection, schedule: Q01DX001 (ip), vehicle: Klucel (hydroxypropylcellulose) (HPC)
# [16] = dose: 200.0 mg/kg/injection, schedule: Q01DX001 (ip), vehicle: Klucel (hydroxypropylcellulose) (HPC)
# [17] = dose: 400.0 mg/kg/injection, schedule: Q01DX001 (ip), vehicle: Klucel (hydroxypropylcellulose) (HPC)
# [18] = dose: 75.0 mg/kg/injection, schedule: Q01DX001 (ip), vehicle: saline
# [19] = dose: 150.0 mg/kg/injection, schedule: Q01DX001 (ip), vehicle: saline
# [20] = dose: 400.0 mg/kg/injection, schedule: Q04DX003 (ip), vehicle: saline
smiles,measurement,setting,value
N=c1c2ncn(C3CCCC3)c2ncn1O,T/C,[1],114 % of control
same,T/C,"dose: 50.0 mg/kg/injection, schedule: Q04DX003 (ip), vehicle: saline with Tween-80",106 % of control
same,T/C,"dose: 100.0 mg/kg/injection, schedule: Q01DX001 (ip), vehicle: saline with Tween-80",98 % of control
same,T/C,"dose: 100.0 mg/kg/injection, schedule: Q01DX009 (ip), vehicle: saline with Tween-80",103 % of control
same,T/C,[2],95 % of control
same,T/C,"dose: 200.0 mg/kg/injection, schedule: Q01DX001 (ip), vehicle: saline with Tween-80",98 % of control
same,T/C,"dose: 200.0 mg/kg/injection, schedule: Q01DX009 (ip), vehicle: saline with Tween-80",115 % of control
same,T/C,[3],94 % of control
CCC(C)C(CCN1CCCCC1)(CNC(=O)CN(CC)CC)c1cccc2ccccc12 (stereo not drawn),T/C,[4],103 % of control
same,T/C,[5],103 % of control
Cc1cc(C)c(S(=O)(=O)O)cc1[N+](=O)[O-],T/C,[6],96 % of control
same,T/C,[7],101 % of control
same,T/C,[8],98 % of control
CC(C)(C)C#N,T/C,[9],109 % of control
same,T/C,[10],101 % of control
same,T/C,[11],95 % of control
CC(=O)/C(=C/c1ccccc1)N=P(c1ccccc1)(c1ccccc1)c1ccccc1,T/C,"dose: 50.0 mg/kg/injection, schedule: Q04DX003 (ip), vehicle: saline",90 % of control
same,T/C,[9],87 % of control
same,T/C,[4],92 % of control
same,T/C,[10],89 % of control
same,T/C,[5],90 % of control
CCCCCC(=C/c1ccccc1)/C=N/NC(=O)c1ccc[n+](C)c1,T/C,"dose: 50.0 mg/kg/injection, schedule: Q01DX009 (ip), vehicle: Klucel (hydroxypropylcellulose) (HPC)",90 % of control
same,T/C,[6],98 % of control
OCC1=CCN(CCc2c[nH]c3ccccc23)CC1,T/C,[2],95 % of control
same,T/C,[3],88 % of control
same,T/C,"dose: 400.0 mg/kg/injection, schedule: Q04DX003 (ip), vehicle: saline with Tween-80",94 % of control
CCC(C)(C)NC(N)=O,T/C,[12],99 % of control
same,T/C,[13],92 % of control
same,T/C,[14],96 % of control
CC1CC2OC(=O)C(O)(CO)C2CC2(C)C(=O)C=CC12 (stereo not drawn),T/C,"dose: 25.0 mg/kg/injection, schedule: Q04DX002 (ip), vehicle: saline",102 % of control
same,T/C,"dose: 50.0 mg/kg/injection, schedule: Q04DX002 (ip), vehicle: saline",124 % of control
same,T/C,"dose: 100.0 mg/kg/injection, schedule: Q04DX002 (ip), vehicle: saline",120 % of control
CCCC(N)C(=O)O (stereo not drawn),T/C,[15],106 % of control
same,T/C,[16],103 % of control
same,T/C,[17],95 % of control
CC(C)(c1ccccc1)C(C(=O)O)C(=O)O,T/C,[18],98 % of control
same,T/C,[19],98 % of control
same,T/C,"dose: 300.0 mg/kg/injection, schedule: Q01DX001 (ip), vehicle: saline",102 % of control
C=C(Cl)CSC(=N)N,T/C,"dose: 10.0 mg/kg/injection, schedule: Q01DX009 (ip), vehicle: saline",109 % of control
same,T/C,"dose: 12.0 mg/kg/injection, schedule: Q01DX009 (ip), vehicle: Klucel (hydroxypropylcellulose) (HPC)",88 % of control
same,T/C,"dose: 20.0 mg/kg/injection, schedule: Q01DX009 (ip), vehicle: saline",101 % of control
same,T/C,"dose: 25.0 mg/kg/injection, schedule: Q01DX009 (ip), vehicle: Klucel (hydroxypropylcellulose) (HPC)",103 % of control
same,T/C,[4],108 % of control
same,T/C,[5],106 % of control
same,T/C,[20],104 % of control
OC1C(Br)CC(Br)C1O (stereo not drawn),T/C,"dose: 100.0 mg/kg/injection, schedule: Q04DX002 (ip), vehicle: saline with Tween-80",97 % of control
same,T/C,"dose: 200.0 mg/kg/injection, schedule: Q04DX002 (ip), vehicle: saline with Tween-80",93 % of control
same,T/C,"dose: 400.0 mg/kg/injection, schedule: Q04DX002 (ip), vehicle: saline with Tween-80",101 % of control
Brc1ccc(-c2nc3ccccc3c(Br)c2Br)cc1,T/C,[9],90 % of control
same,T/C,[10],94 % of control
same,T/C,[11],90 % of control
CC(C)C(=O)c1ccc(-c2ccccc2)cc1,T/C,"dose: 25.0 mg/kg/injection, schedule: Q01DX009 (ip), vehicle: water",101 % of control
same,T/C,"dose: 50.0 mg/kg/injection, schedule: Q01DX009 (ip), vehicle: water",106 % of control
same,T/C,"dose: 100.0 mg/kg/injection, schedule: Q01DX009 (ip), vehicle: water",98 % of control
same,T/C,"dose: 200.0 mg/kg/injection, schedule: Q01DX009 (ip), vehicle: water",95 % of control
same,T/C,"dose: 400.0 mg/kg/injection, schedule: Q01DX009 (ip), vehicle: water",93 % of control
Nc1nc(CCl)cs1,T/C,"dose: 25.0 mg/kg/injection, schedule: Q04DX003 (ip), vehicle: Klucel (hydroxypropylcellulose) (HPC)",103 % of control
same,T/C,"dose: 50.0 mg/kg/injection, schedule: Q04DX003 (ip), vehicle: Klucel (hydroxypropylcellulose) (HPC)",95 % of control
same,T/C,"dose: 100.0 mg/kg/injection, schedule: Q04DX003 (ip), vehicle: Klucel (hydroxypropylcellulose) (HPC)",98 % of control and 100 % of control
COc1cc(N(CCCl)CCCl)c(OC)cc1/C=N/NC(=O)CC(N)C(=O)O (stereo not drawn),T/C,"dose: 12.37 mg/kg/injection, schedule: Q01DX009 (ip), vehicle: saline",107 % of control
same,T/C,"dose: 12.5 mg/kg/injection, schedule: Q01DX009 (ip), vehicle: saline with Tween-80",113 % of control
same,T/C,"dose: 18.75 mg/kg/injection, schedule: Q01DX009 (ip), vehicle: saline",112 % of control
same,T/C,"dose: 25.0 mg/kg/injection, schedule: Q01DX009 (ip), vehicle: saline with Tween-80",119 % of control
same,T/C,"dose: 28.12 mg/kg/injection, schedule: Q01DX009 (ip), vehicle: saline",112 % of control
same,T/C,"dose: 37.5 mg/kg/injection, schedule: Q01DX009 (ip), vehicle: saline",88 % of control
same,T/C,"dose: 37.5 mg/kg/injection, schedule: Q04DX003 (ip), vehicle: acetone",111 % of control
same,T/C,[1],119 % of control
same,T/C,[18],123 % of control
same,T/C,"dose: 75.0 mg/kg/injection, schedule: Q01DX009 (ip), vehicle: saline",88 % of control
same,T/C,"dose: 75.0 mg/kg/injection, schedule: Q04DX003 (ip), vehicle: acetone",105 % of control
same,T/C,"dose: 100.0 mg/kg/injection, schedule: Q01DX001 (ip), vehicle: carboxymethylcellulose (CMC)",115 % of control
same,T/C,"dose: 100.0 mg/kg/injection, schedule: Q01DX009 (ip), vehicle: other",120 % of control
same,T/C,[19],123 % of control
same,T/C,"dose: 150.0 mg/kg/injection, schedule: Q04DX003 (ip), vehicle: acetone",113 % of control
same,T/C,"dose: 177.0 mg/kg/injection, schedule: Q01DX001 (ip), vehicle: carboxymethylcellulose (CMC)",120 % of control
same,T/C,"dose: 266.0 mg/kg/injection, schedule: Q01DX001 (ip), vehicle: carboxymethylcellulose (CMC)",124 % of control
same,T/C,"dose: 400.0 mg/kg/injection, schedule: Q01DX001 (ip), vehicle: carboxymethylcellulose (CMC)",118 % of control
same,T/C,"dose: 600.0 mg/kg/injection, schedule: Q01DX001 (ip), vehicle: carboxymethylcellulose (CMC)",153 % of control
O=C(O)c1ccccc1Nc1ccccc1[N+](=O)[O-],T/C,"dose: 100.0 mg/kg/injection, schedule: Q01DX005 (ip), vehicle: Klucel (hydroxypropylcellulose) (HPC)",90 % of control
same,T/C,[6],87 % of control
same,T/C,[12],93 % of control
same,T/C,"dose: 200.0 mg/kg/injection, schedule: Q01DX005 (ip), vehicle: Klucel (hydroxypropylcellulose) (HPC)",94 % of control
same,T/C,[7],102 % of control
same,T/C,[13],100 % of control
same,T/C,"dose: 400.0 mg/kg/injection, schedule: Q01DX005 (ip), vehicle: Klucel (hydroxypropylcellulose) (HPC)",105 % of control
same,T/C,[8],94 % of control
same,T/C,[14],96 % of control
CN(C)C1=CC(=O)C(N(C)C)=CC1=O,T/C,[15],110 % of control
same,T/C,[16],112 % of control
same,T/C,[17],105 % of control
CCNC(=O)CS(=O)(=O)c1ccc(N)cc1,T/C,[4],100 % of control
same,T/C,[5],108 % of control
same,T/C,[20],105 % of control

# From PubChem BioAssay AID248 (DTP/NCI, 2004)
